Laboratory results taken from patent US20110015278A1, “PHYTOL AS A CHOLESTEROL LOWERING AGENT” (priority 2008, published 2011).

Key:
[1] = system: RXR (retinoid X receptor); details: cited from earlier work
[2] = target: T1, PPARα (Homo sapiens, UniProt Q07869); details: cited from earlier work
T1 sequence (Q07869 1-468): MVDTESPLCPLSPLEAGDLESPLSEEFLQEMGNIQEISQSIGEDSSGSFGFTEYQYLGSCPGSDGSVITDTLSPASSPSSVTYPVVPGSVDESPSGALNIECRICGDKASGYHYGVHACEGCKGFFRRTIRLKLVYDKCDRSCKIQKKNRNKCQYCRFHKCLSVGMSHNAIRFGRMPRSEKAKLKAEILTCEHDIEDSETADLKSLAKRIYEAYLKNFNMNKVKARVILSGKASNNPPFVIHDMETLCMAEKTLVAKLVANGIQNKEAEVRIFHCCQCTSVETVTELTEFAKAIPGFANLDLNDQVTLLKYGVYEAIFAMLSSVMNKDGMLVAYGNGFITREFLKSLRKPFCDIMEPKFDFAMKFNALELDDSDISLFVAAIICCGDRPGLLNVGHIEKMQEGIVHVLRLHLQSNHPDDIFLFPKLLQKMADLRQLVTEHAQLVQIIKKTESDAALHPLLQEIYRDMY

[3] = system: 3T3-L1 cells; details: 3T3-L1 cells (Schluter et al., 2002); cited from earlier work
[4] = system: hepatocytes; details: EP 1177789; cited from earlier work
[5] = system: mouse teratogenesis models; details: mouse teratogenesis models (Arnhold et al., 2002); cited from earlier work
[6] = system: healthy rats; assay: Phytol treatment healthy rats, serum triglycerides and cholesterol (Example 1); format: in vivo, rat; details: 1 weight percentage phytol mixed in the food, after 4 days, vs untreated rats
Procedure: FIG. 1 is a graph comparing the triglyceride and cholesterol lowering effect of phytol in rats. The rats were treated with oral administration of phytol at 125 mg daily.
(§1) Triglyceride and cholesterol lowering effect after oral administration of phytol was validated in serum from healthy rats treated with phytol. Phytol (FIG. 1; black bars) was administrated to rats at 1 weight percentage phytol mixed in the food. Analysis was made in comparison with control (FIG. 1; white bars) untreated rats.

[7] = system: healthy pigs; assay: Phytol treatment healthy pigs, serum triglycerides and cholesterol (Example 2); format: in vivo, pig; details: 10 g phytol daily mixed in the food, after 1 wk, vs untreated pigs
Procedure: FIG. 2 is a graph comparing the triglyceride and cholesterol lowering effect of phytol in pigs. The pigs were treated with oral administration of phytol at 10 g daily.
Triglyceride and cholesterol lowering effect after oral administration of phytol was validated in serum from healthy pigs treated with phytol. Phytol (FIG. 2.; black bars) was administrated to pigs at 10 g phytol daily mixed in the food. Analysis was made in comparison with control (FIG. 2.; white bars) untreated pigs.

[8] = system: healthy pigs; assay: Phytol treatment healthy pigs, increasing dose, serum triglycerides (Example 3); format: in vivo, pig; details: vs corn oil control
Procedure: FIG. 3 is a graph showing the effect of increased dose of phytol in pigs. The pigs were treated with oral administration of 1.25; 2.5; 5 and 10 g phytol daily for two weeks, respectively.
Triglyceride lowering effect after oral administration of phytol was validated in serum from healthy pigs treated with phytol. Phytol (FIG. 3.; black circles) was administrated to pigs at 1.25, 2.5, 5 and 10 g phytol daily. Analysis was made in comparison with control (FIG. 3.; open circles) pigs given corn oil as control.

[9] = system: obese (ob/ob) mice; assay: Phytol treatment obese (ob/ob) mice, serum cholesterol (Example 4); format: in vivo, mouse; details: 0.75 weight percentage phytol mixed in the food, during 5 weeks, vs untreated mice, p<0.001
Procedure: FIG. 4 is a graph comparing the cholesterol lowering effect of phytol in obese ob/ob mice. The mice were treated with oral administration of phytol 0.75% weight evenly distributed in powdered chow.
Cholesterol lowering effect after oral administration of phytol was validated in serum from obese (ob/ob) mice treated with phytol. Phytol (FIG. 4; black circles) was administrated to the mice at 0.75 weight percentage phytol mixed in the food. Analysis was made in comparison with control (FIG. 4; open circles) untreated mice.

[10] = system: healthy rats; assay: Phytol treatment healthy rats, serum cholesterol and LDL-cholesterol, thirty days (Example 5); format: in vivo, rat; details: 1 weight percentage phytol in the food
Procedure: FIG. 5 is a graph comparing the cholesterol and LDL-Cholesterol lowering effect of phytol in rats. The rats were treated with oral administration of phytol at 1% weight evenly distributed in powdered chow.
as §1, with “Cholesterol” for “Triglyceride”, “LDL-Cholesterol” for “cholesterol”, “5;” for “1;”, “food for thirty days.” for “food.”

[11] = system: healthy mice; assay: Phytol treatment healthy mice, serum cholesterol and LDL-cholesterol (Example 6); format: in vivo, mouse; details: 1 weight percentage phytol in the food, after thirty days, vs untreated mice
Procedure: FIG. 6 is a graph comparing the cholesterol and LDL-Cholesterol lowering effect of phytol in mice. The mice were treated with oral administration of phytol at 1% weight evenly distributed in powdered chow.
as §1, with “Cholesterol” for “Triglyceride”, “LDL-Cholesterol” for “cholesterol”, “mice” for “rats”, “6;” for “1;”, “food for thirty days.” for “food.”, “mice.” for “rats.”

[12] = system: healthy rats; assay: Phytol treatment healthy rats, 400 mg every second day, serum cholesterol and LDL-cholesterol (Example 7); format: in vivo, rat; details: 400 mg phytol every second day, after three weeks, vs untreated rats
Procedure: FIG. 7 is a graph comparing the cholesterol and LDL-Cholesterol lowering effect of Phytol in rats. The rats were treated with oral administration of phytol at 400 mg every second day for three weeks.
Cholesterol and LDL-Cholesterol lowering effect after oral administration of phytol was validated in serum from healthy rats treated with phytol. Phytol (FIG. 7; black bars) was administrated to rats at 400 mg phytol administered every second day for three weeks. Analysis was made in comparison with control (FIG. 7; white bars) untreated rats.

[13] = system: rats; details: cited from earlier work
[14] = system: rabbits; details: cited from earlier work
[15] = system: rats; details: rats fed 0.5% phytol in the diet for 15 months (Steinberg et al., 1966); cited from earlier work
[16] = system: humans; details: 10% concentration (Kligman, 1966; Kligman & Epstein, 1975); cited from earlier work
[17] = cited from earlier work
[18] = cited from earlier work; remark: listed apart in the source
[19] = system: adult mice; details: cited from earlier work
[20] = one Refsum's disease patient, 72 mg tritium labelled phytol orally after overnight fasting (Kahlke & Wagener, 1966); cited from earlier work
[21] = phytol given as chlorophyll; cited from earlier work
[22] = after ten days, vs untreated rats, p<0.0001
[23] = after three weeks of phytol feeding

CC(C)CCCC(C)CCCC(C)CCCC(C)CC(=O)O (stereo not drawn) [phytanic acid]
RXR (retinoid X receptor) activator ([1]; Kitareewan et al., 1996): activator
activation of RXR in vitro (postulated) ([1]; in vitro): activate
activation of PPARα in vitro (postulated) [2]: activate
AP2 mRNA [3]: activates AP2 mRNA
transcription of the genes for glucose transporters and glucokinase [4]: increase and stimulate the transcription
uptake of glucose in hepatocytes [4]: increased uptake of glucose
vitamin A (retinol) induced teratogenic effects [5]: able to prevent

C/C(=C\CO)CCCC(C)CCCC(C)CCCC(C)C (stereo not drawn) [phytol, 3,7,11,15-Tetramethyl-hexadec-2-en-1-ol]
serum levels of cholesterol ([6]; p<0.001): significantly reduced
serum levels of triglycerides ([6]; p<0.05): significantly reduced
serum levels of triglycerides ([7]; p<0.01): significantly reduced
serum levels of cholesterol ([7]; p<0.05): significantly reduced
serum levels of triglycerides ([8]; 2.5 g phytol per day oral, p<0.05): significantly reduced
serum levels of triglycerides ([8]; 5 g phytol per day oral, p<0.01): significantly reduced
serum levels of triglycerides ([8]; 10 g phytol per day oral, p<0.001): significantly reduced
serum levels of cholesterol [9]: significantly reduced
serum LDL-cholesterol [10, 22]: significantly reduced
serum cholesterol [10, 22]: significantly reduced
serum LDL-cholesterol ([10]; after thirty days): even more reduced
serum LDL-cholesterol ([11]; p<0.01): significantly reduced
serum cholesterol ([11]; p=0.05): significantly reduced
serum LDL-cholesterol ([12]; p<0.001): significantly reduced
serum cholesterol ([12]; p<0.05): significantly reduced
acute oral LD50 [13]: exceed 5 g/kg
acute dermal LD50 [14]: exceed 5 g/kg
growth inhibition or toxicity [15]: No evidence of growth inhibition or toxicity
irritation [16]: no irritation
capacity to absorb into the intestinal lymphatic ([17]; rat, oral administration (Baxter & Steinberg, 1967)): ≤ 0.2 g phytol/kg bodyweight
time of transportation into the intestinal lymphatic after administration ([17]; rat, oral administration): ≤ 20 h
absorption when mixed with bile salts prior to administration ([17]; rat, oral, phytol mixed with bile salts): absorption increases
orally administered phytol absorbed ([17]; rat, oral): More than 50%
share of absorbed phytol absorbed via the intestinal lymphatics ([17]; rat, oral): more than 70%
absorption and degradation ([17]; rats fed 5% phytol (Mize et al., 1966)): capacity to rapidly absorb and degrade phytol
absorbed, of administered dose ([17]; rats, oral): 30-66 % of administered dose
serum and liver values of accumulated phytol after phytol is subtracted from the food ([18]; after withdrawal of dietary phytol): drops rapidly
distribution to the livers ([18]; at the 1% level in the food): no phytol was distributed to the livers
accumulation in tissues ([18]; dietary phytol at doses 1-5% in the food, rat, mouse, rabbit and chinchillas (Steinberg et al., 1966)): accumulation in both liver and serum
serum cholesterol levels [19, 23]: remained unaffected
serum triglyceride levels [19, 23]: decreased
hepatic peroxisomes ([19]; enhanced supply of phytol in the diet (Van den Branden et al., 1986)): proliferation of hepatic peroxisomes
vitamin A (retinol) induced teratogenic effects [5]: able to prevent
principal carriers of phytol in plasma [20]: Plasma cholesterol esters and triglycerides

chlorophyll
absorption of phytol compared to when given as pure phytol [21]: much lower
